Measured values: US8865864B2, “Mutant epidermal growth factor polypeptides with improved biological activity and methods of their making and use” (The Board of Trustees of the Leland Stanford Junior …, priority 2011, dated 2014)

Key:
BJ-5ta cells = experiment: Cell proliferation assay ([3H]TdR incorporation); format: cell-based, human; conditions: for level of cell proliferation ([3H]TdR incorporation): 1 nM dose, CFPS-produced protein
Procedure: BJ-5ta cells, human immortalized foreskin fibroblast cells that express human EGFR (American Type Culture Collection), were plated in 96-well plates at a density of 2500 cells per well in 100 μl of full medium [Dulbecco's modified Eagle's medium (DMEM)] supplemented with 1% penicillin/streptomycin (Pen/Strep), 1% I-glutamine, 1% sodium pyruvate, 20% M199, and 10% fetal bovine serum. All cell culture reagents were from invitrogen. After 24 h, cells were serum-starved for 48 h in serum-free medium (DMEM supplemented with 1% Pen/Strep, 1% I-glutamine, 1% sodium pyruvate, and 20% M199). The medium was then replaced with 100 μl of serum-free medium containing the indicated concentrations of treatment protein.
When indicated, the standard serum-free medium used during protein treatment was replaced with advanced media (Advanced DMEM supplemented with 1% Pen/Strep, 1% I-glutamine, 1% sodium pyruvate, and 20% M199) or supplemented with human recombinant insulin. […]
[3H]TdR incorporation was measured 24 h later by freezing the plates at −80° C. overnight, thawing the plates at room temperature, harvesting the cells onto glass fiber filter mats (Perkin Elmer) with a Mach IIIM Harvester (Tomtec), and performing scintillation counting with a Wallac MicroBeta Counter (Perkin Elmer).
BJ5ta cells were plated in 96-well plates at densities of 2,500 cells/well (BJ5ta), in 100 μl of complete medium. […] 3H-TdR incorporation was measured 24 h later by freezing the cells overnight at −80° C. and harvesting the cells onto glass fiber filtermats (Perkin Elmer) using a Mach IIIM harvester (Tomtec). […]
BJ-5ta cells were plated in 96-well plates at a density of 5,000 cells/well and 2,500 cells/well, respectively, in 100 μl of medium. […] 3H-TdR incorporation was measured 24 h later by harvesting the cells onto glass fiber filtermats (Perkin Elmer, Waltham, Mass.) using a Mach IIIM harvester (Tomtec, Hamden, Conn.) and performing scintillation counting with a Wallac MicroBeta (Perkin Elmer, Waltham, Mass.).

BJ5ta cells = experiment: Chemotactic cell migration assay, BJ-5ta; format: cell-based, human; conditions: 0.3 nM, 3-hour exposure
Procedure: Non-migrated cells were removed by wiping the upper side of the membrane with a cotton swab. The transwells were washed three times with PBS, fixed with methanol, and stained with modified Giemsa. Pictures were taken of the migrated stained cells in nine random high-powered fields (20×) using light microscopy, and the number of migrated cells was counted.
Costar transwells (Corning 3422, 8.0 μm pores, 6.5 mm diameter) were coated on both sides with 10 μg/ml bovine fibronectin (Sigma F1141-2MG, 1 mg/ml) overnight at 4° C. in buffer (50 mM Tris-HCl, 500 mM NaCl, pH 7.5), Transwells were then washed 3 times with PBS, and then blocked with PBS with 1% BSA (PBS/BSA) at 37° C. for 1 hr prior to usage. […] Non-migrated cells were removed by wiping the upper side of the membrane with Q-tips. […] Pictures were taken of the migrated-stained cells in nine random high-powered fields (20×) using light microscopy, and the number of migrated cells was counted using ImageJ software.
Costar transwells (8.0 μm pores, 6.5 mm diameter) were coated on both sides with bovine fibronectin (10 μg/ml) overnight at 4° C. washed 3 times with PBS, and then blocked with 1% bovine serum albumin (BSA) in PBS at 37° C. for 1 h prior to usage. […] Pictures were taken of the migrated-stained cells in nine random high powered fields (20×) using light microscopy, and the number of migrated cells were counted.

NR6WT cells = experiment: Chemotactic cell migration assay, NR6WT; format: cell-based, murine; conditions: 0.3 nM, 3-hour exposure
Procedure: (§1) Costar transwells (8.0 μm pores, 6.5 mm diameter) were coated on both sides with bovine fibronectin (10 μg/ml) overnight at 4° C. washed 3 times with PBS, and then blocked with 1% bovine serum albumin (BSA) in PBS at 37° C. for 1 h prior to usage. […] Non-migrated cells were removed by wiping the upper side of the membrane with a cotton swab. The transwells were washed three times with PBS, fixed with methanol, and stained with modified Giemsa. Pictures were taken of the migrated-stained cells in nine random high powered fields (20×) using light microscopy, and the number of migrated cells were counted.

BALB/3T3 cells = experiment: Chemotactic cell migration assay, BALB/3T3; format: cell-based; conditions: 0.3 nM, 3-hour exposure
Procedure: as §1

[1] = tested on: ErbB receptors expressed on the surface of CHO cells; experiment: EGF ligand specificity on transfected CHO cells; format: binding; conditions: 25 nM, 10 min, CHO cells individually expressing ErbB receptors
Procedure: The binding specificities of wild-type and mutant EGF were determined by flow cytometry using CHO cells transfected with EGFR or other ErbB receptor family members. […] Cells were labeled with a FITC-conjugated antibody directed against the N-terminal FLAG epitope tag on EGF and analyzed by flow cytometry.

hEGFR and mEGFR = experiment: SPR pH titration binding (Example 3); parameters: species or system human and murine; conditions: 200 nM ligand, pH 5.0 to 8.5
Procedure: pH titration binding experiments were performed at 25° C. in degassed buffer at various pHs ranging from 5.0 to 8.5. Wild-type and mutant EGF were diluted to 200 nM in pH buffer and flowed over the surface of the hEGFR sensorchip at a flow rate of 20 μL/min for 2 min. The hEGFR and mEGFR surfaces were regenerated as noted above. pH titration binding experiments were performed in triplicate at each pH over flow cells one and two for bath the hEGFR and mEGFR surfaces. The steady-state binding response was measured for each growth factor at the association phase plateau of the sensorgram.

Substance	level of cell proliferation ([3H]TdR incorporation) (BJ-5ta cells)	cell proliferation compared to wild-type EGF (BJ-5ta cells; varying concentrations, 72 hours)	chemotactic migration compared to wild-type EGF, BJ-5ta (BJ5ta cells)	chemotactic migration compared to wild-type EGF, NR6WT (NR6WT cells)	chemotactic migration compared to wild-type EGF, BALB/3T3 (BALB/3T3 cells)	ErbB binding specificity [1]	pH sensitivity of steady-state binding to EGFR (hEGFR and mEGFR)
L47D: EGF point mutant, leucine 47 substituted with aspartic acid, used in mock libraries (NSDSECPLSHDGYCLHDGVCMYIEALDKYACNCVVGYIGERCQYRDDKWWELR; not fully specified; Epidermal growth factor; UniProt P01133 971-1023, looked up, variant L47D)	intermediate						
L47R: EGF point mutant, leucine 47 substituted with arginine, used in mock libraries (NSDSECPLSHDGYCLHDGVCMYIEALDKYACNCVVGYIGERCQYRDRKWWELR; not fully specified; Epidermal growth factor; UniProt P01133 971-1023, looked up, variant L47R)	low						
m123: high-affinity mutant EGF SEQ ID NO:17: NSYSECPPSYDGYCLHDGVCRYIEALDSYACNCVVGYAGERCQYRDLRWWGRR		no significant changes in the levels of cell proliferation	increased chemotactic migration	increased chemotactic migration	increased chemotactic migration	bound specifically to EGFR but not to other ErbB receptor family members	much less so
